# In US6624199B1, “Aminobenzophenones” (Leo Pharmaceuticals Products Ltd. A/S, priority 1999, dated 2003):
# Entries after “also recorded” stand apart in the source; their conditions may differ. Like-named read-outs stand apart in the source and are kept apart here.
# How the values were obtained:
# [1] = tested on: utriculi (pseudocomedones) of rhino mouse skin; assay: Rhino mouse model (comedolytic and hyperplastic potency, skin irritation); conditions: for Skin irritation YES/NO / % increase in epidermal thickness / % reduction in number of utriculi: once daily for three weeks; for comedolytic effect (reduction in number of utriculi), in words / epidermal hyperplasia (increase in epidermal thickness and follicular epithelia), in words: 1.5% concentration in acetone, three weeks; for clinical visible skin irritancy, in words: three weeks treatment period
# Method: (§2) The rhino mouse is an in vivo model for the study of hyperplastic and comedolytic potency of various drugs used in the treatment of acne. The rhino mouse has follicles on the skin. The orifices are distended with horny material and these structures resembles human microcomedones and are referred to as utriculi or pseudocomedones.
# (§3) In the present study the effect of a number of compounds were evaluated in the rhino mouse model. […] Additionally a number of marketed products used today for treatment of acne were selected and included for comparison.
# (§4) The animals were treated once daily for three weeks including weekends. […] Histological evaluation of the skin was performed at the end of the treatment period.
# [2] = tested on: TPA-induced chronic skin inflammation in the mouse ear; assay: Model 2: TPA-induced chronic skin inflammation in the mouse ear; format: in vivo; conditions: topical in acetone twice daily day 8-10, once day 11, 0.5 mg/ear (all-trans retinoic acid 0.01 mg/ear)
# Method: (§1) For in vivo assays, the test compounds were dissolved in acetone. Adapalene was tested as a gel formulation (Differin gel 0.1%, 20-30 mg/treatment). The screening doses were 0.5 mg/ear in model 1 and 2. Exception was all-trans retinoic acid (0.01 mg/ear).
# Model 2. Tpa-induced Chronic Skin Inflammation in the Mouse Ear
# AIM Compounds with anti-inflammatory effects in this model may be useful in treating chronic skin disorders in man.
# METHODS In groups of 5-6 mice, ear inflammation is induced by multiple topical applications of TPA on alternate days during a 10-day period. The resulting inflammation is treated topically with compounds in acetone solution twice daily on day 8, 9 and 10 and once on day 11. Ear thickness (ET) is determined 5-6 hours after the last drug administration, the mice are sacrificed and myeloperoxidase (MPO) activity (=PMN-infiltration) is determined in ear biopsies, cf. De Young, L. M. et al, Agents Actions, 26, 335-341 (1989); Carlson, R. P. et al, Agents Actions, 17, 197-204 (1985); Alford, J. G. et al, Agents Action, 37, (1992); Stanley, P. L. et at, Skin Pharmacol, 4, 262-271 (1991).
# RESULTS Results are recorded as % change from control group using the formula: 100(T/C-1) where T=mean ET/MPO treated group and C=mean ET/MPO control group. Negative figures represent inhibition and positive stimulation. The level of significance is set at p<0.05 using the Mann-Whitney's U-test. Significant stimulation is stated.
# [3] = cited from earlier work
# [4] = tested on: Oxazolone-induced contact dermatitis in the mouse ear; assay: Model 1: oxazolone-induced contact dermatitis in the mouse ear; format: in vivo; conditions: topical in acetone 30 min post-challenge, 0.5 mg/ear (all-trans retinoic acid 0.01 mg/ear)
# Method: as §1
# Model 1. Oxazolone-induced Contact Dermatitis in the Mouse Ear
# AIM Compounds with anti-inflammatory effects in this model may be useful in treating contact eczema in man.
# METHODS Groups of 5-6 mice sensitised to oxazolone 4 days before challenge with oxazolone to the right ear. The resulting oedema (right ear thickness minus left ear thickness) is measured 24, 48 and 72 hours post-challenge (PC), and neutrophil (PMN) influx is determined by the myeloperoxidase (MPO) method 72 hours post-challenge in ear biopsies. The screening dose is 0.5 mg/ear or less applied to the right ear 30 min post-challenge (+30 min). Other dosing regimes are stated.
# RESULTS Results are recorded as % change from control animals using the formula: 100(T/C-1) where T=mean Oedema/MPO treated group and C=mean Oedema/MPO control group. Negative figures represent inhibition and positive stimulation. The level of significance is set at p<0.05 using the Mann-Whitney's U-test. Significant stimulation is stated.
# [5] = tested on: utriculi (pseudocomedones) of rhino mouse skin; conditions: in vivo
# Method: as §2, §3, §4
# [6] = Basiron gel 5%, versus untreated controls
# [7] = Basiron gel 10%, versus untreated controls
# [8] = 20 μg/ml in ethanol, period 1, versus vehicle control
# [9] = 1.5% in acetone, versus vehicle control
# [10] = Skinoren cream 20%, versus untreated controls
# [11] = Differin gel 0.1%, versus untreated controls
smiles,measurement,setting,value
O=C(OOC(=O)c1ccccc1)c1ccccc1 [Benzoyl peroxide],Skin irritation YES/NO,[1]; Basiron gel 5%,YES
same,% increase in epidermal thickness,[1]; [6],178%
same,% reduction in number of utriculi,[1]; [6],46.1%
same,Skin irritation YES/NO,[1]; Basiron gel 10%,YES
same,% increase in epidermal thickness,[1]; [7],190%
same,% reduction in number of utriculi,[1]; [7],62.1%
same,SCORE TPA Ear swelling,[2],0 (% inhibition ET <25)
same,Anti-inflam.,[3]; topical administration,Maybe
same,Antibacterial,[3]; topical administration,Yes
same,Comedolytic,[3]; topical administration,Some-
same,Potential irritant,[3]; topical administration,Yes
same,SCORE OXA Oedema 48 hours p.c.,[4],0 (% inhibition Oedema 48 h PC < 25)
CC1=C(/C=C/C(C)=C/C=C/C(C)=C/C(=O)O)C(C)(C)CCC1 [All-trans retinoic acid],Skin irritation YES/NO,"[1]; 20 μg/ml in ethanol, period 1",YES
same,% increase in epidermal thickness,[1]; [8],110%
same,% reduction in number of utriculi,[1]; [8],81.5%
same,SCORE TPA Ear swelling,[2],0 (% inhibition ET <25)
same,Anti-inflam.,[3]; topical administration,No
same,Antibacterial,[3]; topical administration,No
same,Comedolytic,[3]; topical administration,Yes
same,Potential irritant,[3]; topical administration,Yes
same,Teratogenic,[3]; topical administration,Maybe
same,SCORE OXA Oedema 48 hours p.c.,[4],0 (% inhibition Oedema 48 h PC < 25)
CN(C)c1ccc(O)c2c1C[C@H]1C[C@H]3[C@H](N(C)C)C(O)=C(C(N)=O)C(=O)[C@@]3(O)C(O)=C1C2=O [Minocyclin],Anti-inflam.,[3]; systemic administration,Yes
same,Antibacterial,[3]; systemic administration,Yes
same,Comedolytic,[3]; systemic administration,No
same,Teratogenic,[3]; systemic administration,Yes
"CCOC(=O)Nc1ccccc1Nc1ccc(C(=O)c2ccccc2C)c(Cl)c1 [Compound 106, ethyl N-(2-(4-(2-methylbenzoyl)-3-chlorophenylamino)phenyl)carbamate]","comedolytic effect (reduction in number of utriculi), in words",[1],comedolytic effect
same,"epidermal hyperplasia (increase in epidermal thickness and follicular epithelia), in words",[1],epidermal hyperplasia
same,"comedolytic effect (reduction in number of utriculi), in words",[1]; listed as ethyl N-(2-(4-(2-methylbenzoyl)-3-chlorophenylamino)phenyl)carbamate,comedolytic activity
same,% increase in epidermal thickness,[1]; [9],146%
same,% reduction in number of utriculi,[1]; [9],38.3%
same,"clinical visible skin irritancy, in words",[1],without concomitant skin irritancy
same,SCORE TPA Ear swelling,[2],2 (% inhibition ET ≧40 p < 0.05)
same,SCORE OXA Oedema 48 hours p.c.,[4],2 (% inhibition Oedema 48 h PC ≧ 35 p < 0.05)
C[C@H]1c2cccc(O)c2C(O)=C2C(=O)[C@]3(O)C(O)=C(C(N)=O)C(=O)[C@@H](N(C)C)[C@@H]3[C@@H](O)[C@@H]21 [Doxycyclin],Anti-inflam.,[3]; systemic administration,Yes
same,Antibacterial,[3]; systemic administration,Yes
same,Comedolytic,[3]; systemic administration,No
same,Potential irritant,[3]; systemic administration,No
same,Teratogenic,[3]; systemic administration,Yes
CCC[C@@H]1C[C@@H](C(=O)N[C@@H]([C@H]2O[C@H](SC)[C@H](O)[C@@H](O)[C@H]2O)[C@H](C)Cl)N(C)C1 [Clindamycin],Teratogenic,[3]; topical administration,Probably
O=C(O)CCCCCCCC(=O)O [Azelaic acid],% increase in epidermal thickness,[1]; [10],75%
same,% reduction in number of utriculi,[1]; [10],5.7%
same,SCORE TPA Ear swelling,[2],0 (% inhibition ET <25)
same,Anti-inflam.,[3]; topical administration,Maybe
same,Antibacterial,[3]; topical administration,Yes
same,Comedolytic,[3]; topical administration,Yes
same,Potential irritant,[3]; topical administration,Yes
same,Teratogenic,[3]; topical administration,No
same,SCORE OXA Oedema 48 hours p.c.,[4],0 (% inhibition Oedema 48 h PC < 25)
same,Skin irritation YES/NO,[5],NO
"Cc1ccccc1C(=O)c1ccc(Nc2ccc(F)cc2N)cc1Cl [Compound 102, 4-(2-Amino-4-fluorophenylamino)-2-chloro-2′-methylbenzophenone]","comedolytic effect (reduction in number of utriculi), in words",[1],comedolytic effect
same,"epidermal hyperplasia (increase in epidermal thickness and follicular epithelia), in words",[1],epidermal hyperplasia
"Cc1ccccc1C(=O)c1ccc(Nc2ccc(Br)cc2N)cc1Cl [Compound 101, 4-(2-Amino-4-bromophenylamino)-2-chloro-2′-methylbenzophenone]","comedolytic effect (reduction in number of utriculi), in words",[1],comedolytic effect; also recorded: most pronounced comedolytic activity
same,"epidermal hyperplasia (increase in epidermal thickness and follicular epithelia), in words",[1],epidermal hyperplasia
same,% increase in epidermal thickness,[1]; [9],203%
same,% reduction in number of utriculi,[1]; [9],67.4%
same,"clinical visible skin irritancy, in words",[1],without concomitant skin irritancy
same,SCORE TPA Ear swelling,[2],3 (% inhibition ET ≧50 p < 0.05)
same,SCORE OXA Oedema 48 hours p.c.,[4],2 (% inhibition Oedema 48 h PC ≧ 35 p < 0.05)
COc1ccc(-c2ccc3cc(C(=O)O)ccc3c2)cc1C12CC3CC(CC(C3)C1)C2 [Adapalene],Skin irritation YES/NO,[1]; Differin gel 0.1%,YES
same,% increase in epidermal thickness,[1]; [11],202%
same,% reduction in number of utriculi,[1]; [11],92.7%
CC1=C(/C=C/C(C)=C/C=C/C(C)=C\C(=O)O)C(C)(C)CCC1 [Isotretinoin],Anti-inflam.,[3]; systemic administration,Yes
same,Antibacterial,[3]; systemic administration,Yes
same,Comedolytic,[3]; systemic administration,Yes
same,Potential irritant,[3]; systemic administration,Yes
same,Teratogenic,[3]; systemic administration,Yes
CC[C@H]1OC(=O)[C@H](C)[C@@H](O[C@H]2C[C@@](C)(OC)[C@@H](O)[C@H](C)O2)[C@H](C)[C@@H](O[C@@H]2O[C@H](C)C[C@H](N(C)C)[C@H]2O)[C@](C)(O)C[C@@H](C)C(=O)[C@H](C)[C@@H](O)[C@]1(C)O [Erythromycin],SCORE TPA Ear swelling,[2],1 (% inhibition ET ≧25 p < 0.05)
same,SCORE OXA Oedema 48 hours p.c.,[4],0 (% inhibition Oedema 48 h PC < 25)
"Cc1ccccc1C(=O)c1ccc(Nc2ccccc2N)cc1Cl [Compound 103, 4-(2-aminophenylamino)-2-chloro-2′-methylbenzophenone]","comedolytic effect (reduction in number of utriculi), in words",[1],comedolytic effect
same,"epidermal hyperplasia (increase in epidermal thickness and follicular epithelia), in words",[1],epidermal hyperplasia
same,"comedolytic effect (reduction in number of utriculi), in words",[1]; listed as 4-(2-aminophenylamino)-2-chloro-2′-methylbenzophenone,comedolytic activity
same,% increase in epidermal thickness,[1]; [9],120%
same,% reduction in number of utriculi,[1]; [9],52.5%
same,"clinical visible skin irritancy, in words",[1],without concomitant skin irritancy
same,SCORE TPA Ear swelling,[2],2 (% inhibition ET ≧40 p < 0.05)
same,SCORE OXA Oedema 48 hours p.c.,[4],2 (% inhibition Oedema 48 h PC ≧ 35 p < 0.05)
CN(C)[C@@H]1C(=O)C(C(N)=O)=C(O)[C@@]2(O)C(=O)C3=C(O)c4c(O)cccc4[C@@](C)(O)[C@H]3C[C@@H]12 [Tetracyclin],Anti-inflam.,[3]; systemic administration,Yes
same,Antibacterial,[3]; systemic administration,Yes
same,Comedolytic,[3]; systemic administration,No
same,Potential irritant,[3]; systemic administration,No
same,Teratogenic,[3]; systemic administration,Yes
